Here are results for two compounds from article PMC4286194 (Biochemical Journal, 2015).

The subject of one assay is CRTC3. In words: CRTC3 phosphorylation (immunoprecipitation, immunoblot). The settings on record: RAW264.7 macrophages, 1 h. In kind it is cell-based.
In assay [1] the test system is Bone-marrow-derived macrophages. In words: Markers of alternatively activated macrophages (qPCR). It counts as cell-based, mouse. The conditions noted are these: 3 μM bosutinib or 0.3 μM dasatinib 1 h, then LPS. The method, then:
mRNA was extracted from cells using the MicroElute Total RNA kit following the manufacturers’ instructions (Omega Bio-Tek). cDNA was generated from 0.5 μg of total RNA using the iScript cDNA synthesis kit and quantified by quantitative real-time PCR (qPCR) using the SsoFast EvaGreen Supermix on a CFX384 real-time system (Bio-Rad Laboratories). The relative expression of each gene was calculated from CT values using the Pfaffl method and was normalized against the mRNA levels of housekeeping genes including 18S RNA and GAPDH. Results are reported relative to untreated control cells, which were set to 1.

In the next assay the target is T1, EIF2AK3 (Homo sapiens, UniProt Q9NZJ5).
T1 sequence (Q9NZJ5 30-1116): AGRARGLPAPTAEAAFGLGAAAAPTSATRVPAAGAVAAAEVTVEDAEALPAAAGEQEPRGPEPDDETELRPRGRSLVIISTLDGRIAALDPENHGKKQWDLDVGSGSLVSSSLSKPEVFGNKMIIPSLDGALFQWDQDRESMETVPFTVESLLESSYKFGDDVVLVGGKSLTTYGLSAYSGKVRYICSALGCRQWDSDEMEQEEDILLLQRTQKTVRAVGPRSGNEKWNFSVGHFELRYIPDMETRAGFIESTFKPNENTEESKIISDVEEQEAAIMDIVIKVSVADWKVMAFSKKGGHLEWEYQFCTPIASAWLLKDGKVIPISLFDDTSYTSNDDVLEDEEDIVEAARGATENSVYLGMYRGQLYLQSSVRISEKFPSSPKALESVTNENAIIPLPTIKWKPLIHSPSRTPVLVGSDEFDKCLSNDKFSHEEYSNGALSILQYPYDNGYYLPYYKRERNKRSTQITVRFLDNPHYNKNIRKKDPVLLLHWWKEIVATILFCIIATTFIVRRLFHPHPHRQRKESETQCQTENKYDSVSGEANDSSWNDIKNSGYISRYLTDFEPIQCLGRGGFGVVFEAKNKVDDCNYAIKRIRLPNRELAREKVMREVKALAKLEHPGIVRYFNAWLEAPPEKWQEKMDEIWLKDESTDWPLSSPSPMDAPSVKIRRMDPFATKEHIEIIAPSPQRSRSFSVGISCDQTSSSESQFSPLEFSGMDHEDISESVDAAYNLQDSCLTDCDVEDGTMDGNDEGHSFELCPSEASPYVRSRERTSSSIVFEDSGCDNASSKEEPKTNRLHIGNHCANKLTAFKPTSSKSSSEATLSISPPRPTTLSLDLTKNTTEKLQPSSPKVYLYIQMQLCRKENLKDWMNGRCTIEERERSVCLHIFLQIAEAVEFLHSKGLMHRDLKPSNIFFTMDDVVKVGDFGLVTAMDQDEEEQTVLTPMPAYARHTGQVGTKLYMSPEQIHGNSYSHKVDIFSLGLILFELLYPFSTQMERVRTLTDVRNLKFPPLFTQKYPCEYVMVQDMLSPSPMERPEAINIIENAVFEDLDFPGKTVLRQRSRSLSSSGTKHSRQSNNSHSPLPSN
Kind of assay: Kinase profiling. It counts as biochemical.

In another assay the target is MPSK1 (Homo sapiens, UniProt O75716). Kind of assay: Kinase profiling. It counts as biochemical.
Chain of MPSK1 (O75716 whole entry): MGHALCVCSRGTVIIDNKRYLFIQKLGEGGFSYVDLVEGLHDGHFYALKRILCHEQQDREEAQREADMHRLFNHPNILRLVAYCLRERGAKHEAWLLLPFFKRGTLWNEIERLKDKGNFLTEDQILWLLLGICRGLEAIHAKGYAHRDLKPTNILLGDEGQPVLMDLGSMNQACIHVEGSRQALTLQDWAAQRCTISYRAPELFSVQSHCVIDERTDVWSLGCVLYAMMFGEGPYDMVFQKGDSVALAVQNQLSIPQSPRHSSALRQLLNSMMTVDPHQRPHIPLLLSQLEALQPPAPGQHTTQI
The target in a further assay is T2, PDK1 (Homo sapiens, UniProt O15530).
T2 sequence (O15530 1-556): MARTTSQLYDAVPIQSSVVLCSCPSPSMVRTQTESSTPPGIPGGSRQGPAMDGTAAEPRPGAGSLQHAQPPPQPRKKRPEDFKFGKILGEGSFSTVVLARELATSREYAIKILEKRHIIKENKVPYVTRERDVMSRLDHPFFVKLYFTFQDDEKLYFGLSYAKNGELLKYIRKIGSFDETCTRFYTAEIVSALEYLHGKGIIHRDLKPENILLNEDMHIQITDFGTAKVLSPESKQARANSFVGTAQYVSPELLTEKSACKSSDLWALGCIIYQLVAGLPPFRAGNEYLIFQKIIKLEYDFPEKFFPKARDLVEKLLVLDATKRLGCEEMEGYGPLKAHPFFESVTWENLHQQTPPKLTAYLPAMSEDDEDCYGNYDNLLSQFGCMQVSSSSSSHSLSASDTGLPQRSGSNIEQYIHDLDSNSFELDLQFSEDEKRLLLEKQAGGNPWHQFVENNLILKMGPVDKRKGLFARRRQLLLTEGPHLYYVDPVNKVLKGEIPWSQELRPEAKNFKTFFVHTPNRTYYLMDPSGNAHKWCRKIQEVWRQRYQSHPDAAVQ
In words: Kinase profiling. In kind it is biochemical.

Another assay deals with PLK1 (Homo sapiens, UniProt P53350). Kind of assay: Kinase profiling. In kind it is biochemical.
Chain of PLK1 (P53350 whole entry): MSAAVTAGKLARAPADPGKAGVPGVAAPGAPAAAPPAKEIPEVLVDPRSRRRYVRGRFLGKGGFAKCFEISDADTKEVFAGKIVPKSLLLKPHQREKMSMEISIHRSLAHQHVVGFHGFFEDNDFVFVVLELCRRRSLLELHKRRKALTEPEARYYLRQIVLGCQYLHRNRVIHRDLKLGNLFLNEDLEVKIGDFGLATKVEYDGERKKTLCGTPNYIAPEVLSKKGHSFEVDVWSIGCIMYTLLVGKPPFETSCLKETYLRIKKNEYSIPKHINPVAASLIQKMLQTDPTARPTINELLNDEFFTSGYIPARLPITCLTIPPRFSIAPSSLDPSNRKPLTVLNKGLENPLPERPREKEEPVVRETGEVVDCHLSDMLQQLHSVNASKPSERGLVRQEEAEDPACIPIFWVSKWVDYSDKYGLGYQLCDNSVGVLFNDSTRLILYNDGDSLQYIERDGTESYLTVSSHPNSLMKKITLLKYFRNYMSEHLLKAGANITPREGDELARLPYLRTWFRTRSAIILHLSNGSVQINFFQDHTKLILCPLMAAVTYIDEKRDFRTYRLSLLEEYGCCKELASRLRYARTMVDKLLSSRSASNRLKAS
The next assay concerns the target TTBK1 (Homo sapiens, UniProt Q5TCY1). Kind of assay: Kinase profiling. In kind it is biochemical.
Another assay has as its target TTBK2 (Homo sapiens, UniProt Q6IQ55). Kind of assay: Kinase profiling. In kind it is biochemical.

Chain of TTBK2 (Q6IQ55 whole entry): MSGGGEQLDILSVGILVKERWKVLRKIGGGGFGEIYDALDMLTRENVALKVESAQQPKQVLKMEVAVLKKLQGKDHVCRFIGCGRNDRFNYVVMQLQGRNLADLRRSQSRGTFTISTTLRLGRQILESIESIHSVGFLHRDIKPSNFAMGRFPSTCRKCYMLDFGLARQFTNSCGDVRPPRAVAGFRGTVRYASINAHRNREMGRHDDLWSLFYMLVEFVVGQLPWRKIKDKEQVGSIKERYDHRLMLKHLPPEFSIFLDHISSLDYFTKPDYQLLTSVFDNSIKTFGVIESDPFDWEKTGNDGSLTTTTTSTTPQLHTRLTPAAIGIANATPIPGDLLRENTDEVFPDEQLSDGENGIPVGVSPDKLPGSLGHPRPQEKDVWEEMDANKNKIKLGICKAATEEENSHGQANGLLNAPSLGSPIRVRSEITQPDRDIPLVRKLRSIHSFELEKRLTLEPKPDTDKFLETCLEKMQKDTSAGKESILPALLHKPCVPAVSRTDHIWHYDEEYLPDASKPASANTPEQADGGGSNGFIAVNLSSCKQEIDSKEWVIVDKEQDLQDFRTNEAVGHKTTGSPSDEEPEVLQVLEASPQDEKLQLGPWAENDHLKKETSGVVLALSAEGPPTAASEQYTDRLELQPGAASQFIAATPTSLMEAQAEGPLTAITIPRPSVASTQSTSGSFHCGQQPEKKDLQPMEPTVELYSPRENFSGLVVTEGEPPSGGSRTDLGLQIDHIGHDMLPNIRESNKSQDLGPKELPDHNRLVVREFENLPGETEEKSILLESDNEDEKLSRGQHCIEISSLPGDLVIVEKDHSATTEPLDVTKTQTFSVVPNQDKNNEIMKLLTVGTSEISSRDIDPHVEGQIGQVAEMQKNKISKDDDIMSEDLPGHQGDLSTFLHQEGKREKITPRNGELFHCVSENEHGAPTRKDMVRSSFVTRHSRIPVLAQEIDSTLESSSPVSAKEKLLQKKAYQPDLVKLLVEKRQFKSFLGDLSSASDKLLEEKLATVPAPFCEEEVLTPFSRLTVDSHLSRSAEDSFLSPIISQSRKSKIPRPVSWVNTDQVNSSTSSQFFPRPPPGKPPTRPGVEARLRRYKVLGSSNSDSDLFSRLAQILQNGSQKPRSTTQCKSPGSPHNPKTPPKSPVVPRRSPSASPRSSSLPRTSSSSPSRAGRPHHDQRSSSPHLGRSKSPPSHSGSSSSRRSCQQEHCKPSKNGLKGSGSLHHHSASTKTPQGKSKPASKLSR
Chain of TTBK1 (Q5TCY1 whole entry): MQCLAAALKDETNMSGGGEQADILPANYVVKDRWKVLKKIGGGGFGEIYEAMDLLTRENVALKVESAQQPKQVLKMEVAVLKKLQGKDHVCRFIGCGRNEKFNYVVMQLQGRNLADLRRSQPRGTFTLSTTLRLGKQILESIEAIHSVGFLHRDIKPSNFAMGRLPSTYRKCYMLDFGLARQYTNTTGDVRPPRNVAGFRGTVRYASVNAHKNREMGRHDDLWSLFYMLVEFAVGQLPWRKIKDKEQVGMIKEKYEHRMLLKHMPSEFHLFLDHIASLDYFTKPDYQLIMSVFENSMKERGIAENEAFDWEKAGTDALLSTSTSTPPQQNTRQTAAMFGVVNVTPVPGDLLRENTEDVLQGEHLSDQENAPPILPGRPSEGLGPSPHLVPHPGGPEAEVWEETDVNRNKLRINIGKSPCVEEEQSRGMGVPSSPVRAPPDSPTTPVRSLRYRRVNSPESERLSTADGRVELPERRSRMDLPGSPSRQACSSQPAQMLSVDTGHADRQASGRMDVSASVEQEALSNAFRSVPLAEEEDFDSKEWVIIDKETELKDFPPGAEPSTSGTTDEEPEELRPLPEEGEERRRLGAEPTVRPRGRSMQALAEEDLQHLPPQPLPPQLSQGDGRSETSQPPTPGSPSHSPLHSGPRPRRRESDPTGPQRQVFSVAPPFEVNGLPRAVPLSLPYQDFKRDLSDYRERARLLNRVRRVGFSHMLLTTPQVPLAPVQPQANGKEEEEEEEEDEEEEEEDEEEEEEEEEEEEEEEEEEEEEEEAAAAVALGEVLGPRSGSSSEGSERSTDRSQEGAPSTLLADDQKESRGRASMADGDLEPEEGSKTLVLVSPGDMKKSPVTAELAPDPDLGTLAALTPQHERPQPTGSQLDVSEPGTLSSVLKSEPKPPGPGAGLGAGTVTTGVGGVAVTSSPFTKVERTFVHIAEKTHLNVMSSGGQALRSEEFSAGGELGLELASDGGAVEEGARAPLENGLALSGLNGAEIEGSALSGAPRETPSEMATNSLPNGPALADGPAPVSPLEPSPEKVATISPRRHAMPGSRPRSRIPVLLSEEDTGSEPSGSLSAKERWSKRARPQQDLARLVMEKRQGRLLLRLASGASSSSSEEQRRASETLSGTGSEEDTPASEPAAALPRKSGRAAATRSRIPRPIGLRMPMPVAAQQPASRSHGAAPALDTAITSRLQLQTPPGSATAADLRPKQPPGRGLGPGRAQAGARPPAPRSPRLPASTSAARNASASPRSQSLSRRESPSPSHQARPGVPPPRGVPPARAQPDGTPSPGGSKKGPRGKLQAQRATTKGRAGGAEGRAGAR
Procedure for CRTC3: RAW264.7 cells were cultured in DMEM containing 10% FBS, 2 mM glutamine and penicillin and streptomycin. […] Cells were treated for 1 h with or without inhibitors and then stimulated for up to 24 h with either 1 μg/ml Pam3CSK4 or 100 ng/ml LPS.
Cells were extracted in lysis buffer [50 mM Tris/HCl, pH 7.4, 1 mM EDTA, 1 mM EGTA, 50 mM NaF, 5 mM sodium pyrophosphate, 10 mM sodium β-glycerol 1-phosphate, 1 mM DTT, 1 mM sodium orthovanadate, 0.27 M sucrose, 1% (v/v) Triton X-100, 1 μg/ml aprotinin, 1 μg/ml leupeptin and 1 mM PMSF]. Cell extracts were clarified by centrifugation and protein concentrations were determined using the Bradford assay. To immunoprecipitate endogenous CRTC3, 1 mg of cell extract was incubated with 5 μg of anti-CRTC3 [13] covalently cross-linked on to Protein G–Sepharose. Immune complexes were washed three times with lysis buffer, eluted in 1% SDS and separated by SDS/PAGE. To detect proteins in cell lysates, 20 μg of protein extract was separated by SDS/PAGE. After transfer to PVDF membranes, proteins were detected by immunoblotting and visualized by treating the blots with ECL (GE Healthcare) followed by autoradiography.

For `COc1cc(Nc2c(C#N)cnc3cc(OCCCN4CCN(C)CC4)c(OC)cc23)c(Cl)cc1Cl` [Bosutinib, bosutinib], the “Phosphorylation of CRTC3 at Ser162 and Ser370” value in the assay on CRTC3 is given as “dephosphorylation”. Further, the “Expression of FIZZ, YM1 and Mgl2” value in assay [1] is recorded as “without affecting the expression”. For the same compound, the remaining activity at 0.1 µM on EIF2AK3 turned out to be 107 ± 5%; at MPSK1, 117 ± 15%; at PDK1, 92 ± 16%; at PLK1, 97 ± 12%; on TTBK1, 95 ± 2%; on TTBK2, 87 ± 6%. For the same compound, the remaining activity at 1 µM worked out at 103% at EIF2AK3; 110 ± 11% on MPSK1; 98% at PDK1; 74 ± 6% on PLK1 (1 µM); 114 ± 3% at TTBK1; 92 ± 6% on TTBK2.

With `Cc1nc(Nc2ncc(C(=O)Nc3c(C)cccc3Cl)s2)cc(N2CCN(CCO)CC2)n1` [Dasatinib], the “Phosphorylation of CRTC3 at Ser162 and Ser370” value with CRTC3 is reported as “dephosphorylation”. Further, the “Expression of FIZZ, YM1 and Mgl2” value in assay [1] is given as “without affecting the expression”. The remaining activity at 0.1 µM was 106 ± 6% at EIF2AK3; 101 ± 5% at MPSK1; 94 ± 9% at PDK1; 133 ± 18% on PLK1; 112 ± 8% on TTBK1; 110 ± 5% at TTBK2. Further, the remaining activity at 1 µM at EIF2AK3 was determined as 113 ± 2%; at MPSK1, 123 ± 1%; at PDK1, 92 ± 1%; on TTBK1, 112 ± 1%; at TTBK2 it was 117 ± 7%.
